Data published in patent US20250066389A1, “HETEROCYCLIC AMIDES AND METHODS OF USING THE SAME” (Rgenta Therapeutics, Inc., priority 2021, published 2025).
pIC50: −log10 of the molar value. Where a name gives a salt, the structure may show the parent alone.

These compounds were tested on PMS1 (assay: Mini-Gene Reporter Assay—PMS1 (firefly luciferase mini-gene reporter transiently transfected into HEK293 cells)). Settings: Homo sapiens; at 5 uM; mini-gene firefly luciferase reporter in HEK293 cells; read-out: PMS1 % Effect at 5 uM.
Format: cell-based
Method in brief: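 HEK293 cells transiently transfected with a mini-gene construct (skipped exon with flanking introns/exons fused to firefly luciferase, pcDNA3.1) are incubated with compounds in duplicate. Exon inclusion raises luminescence; EC50 fitted by Levenberg-Marquardt; effect also scored at 5 μM.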

Row | Structure (SMILES) | activation at 5 µM [%]
1 | CCOc1cc2nn(C)cc2cc1C(=O)Nc1cnc(N2CCC3CCCNC3C2)cn1 (stereo not drawn) [Compound 303] | 50 to 75
2 | CCOc1cc2nn(C)cc2cc1C(=O)Nc1cnc(NCC2CC3CCC2N3)cn1 (stereo not drawn) [Compound 304] | > 75
3 | CCOc1cc2nn(C)cc2cc1C(=O)Nc1cnc(N2CCNCC3(CC3)C2)cn1 [Compound 305] | > 75
4 | CCOc1cc2nn(C)cc2cc1C(=O)Nc1cnc(N[C@@H]2CNC[C@@H](OC)C2)cn1 [Compound 306] | < 50
5 | CCOc1cc2nn(C)cc2cc1C(=O)Nc1cnc(N[C@@H]2CNC[C@@H](F)C2)cn1 [Compound 307] | 50 to 75
6 | CCOc1cc2nn(C)cc2cc1C(=O)Nc1cnc(NC[C@H]2C[C@@](F)(CN)C2)cn1 [Compound 308] | < 50
7 | CCOc1cc2nn(C)cc2cc1C(=O)Nc1cnc(N2CC(O)(C3CCCN3)C2)cn1 (stereo not drawn) [Compound 309] | > 75
8 | CCOc1cc2nn(C)cc2cc1C(=O)Nc1cnc(NCCC2CC3CCC(C2)N3)cn1 (stereo not drawn) [Compound 310] | < 50
9 | CCOc1cc2nn(C)cc2cc1C(=O)Nc1cnc(NC(C)CC2CC3CCC(C2)N3)cn1 (stereo not drawn) [Compound 311] | < 50
10 | CCOc1cc2nn(C)cc2cc1C(=O)Nc1cnc(NC[C@H]2CNCC(C)(C)O2)cn1 [Compound 312] | < 50
11 | CCOc1cc2nn(C)cc2cc1C(=O)Nc1cnc(NC2CNCC3(CCC3)C2)cn1 (stereo not drawn) [Compound 313] | < 50
12 | CCOc1cc2nn(C)cc2cc1C(=O)Nc1cnc(N2C3CCCC2CNC3)cn1 [Compound 314] | < 50
13 | CCOc1cc2nn(C)cc2cc1C(=O)Nc1cnc(NC2CCC(C)NC2)cn1 (stereo not drawn) [Compound 315] | < 50
14 | CCOc1cc2nn(C)cc2cc1C(=O)Nc1cnc(N2CC(NC)C3(CC3)C2)cn1 (stereo not drawn) [Compound 316] | 50 to 75
15 | CCOc1cc2nn(C)cc2cc1C(=O)Nc1cnc(N2CCCC(NC)CC2)cn1 (stereo not drawn) [Compound 317] | < 50
16 | CCOc1cc2nn(C)cc2cc1C(=O)Nc1cnc(NCC2CNC(C)C2)cn1 (stereo not drawn) [Compound 318] | < 50

Same assay, conditions: Homo sapiens; mini-gene firefly luciferase reporter in HEK293 cells

Row | Structure (SMILES) | pIC50
17 | CCOc1cc2nc(C)cn2cc1C(=O)Nc1ccc(N2C3CCCC2CNC3)nn1 [Compound 238] | 5.00 to 6.00
18 | CCOc1cc2nc(C)cn2cc1C(=O)Nc1ccc(N2CC34CCCC3(CNC4)C2)nn1 (stereo not drawn) [Compound 242] | 5.00 to 6.00
19 | CCOc1cc2nc(C)cn2cc1C(=O)Nc1ccc(N2CCNC3CCCCC32)nn1 (stereo not drawn) [Compound 243] | 5.00 to 6.00
20 | CCOc1cc2nc(C)cn2cc1C(=O)Nc1ccc(N2C3CCC2CC(NC)C3)nn1 (stereo not drawn) [Compound 247] | 5.00 to 6.00
21 | CCOc1cc2nc(C)cn2cc1C(=O)Nc1ccc(N2CC3CCCC(C2)NC3)nn1 (stereo not drawn) [Compound 248] | 5.00 to 6.00
22 | CCOc1cc2nc(C)cn2cc1C(=O)Nc1ccc(N(C)C2CCCNCC2)nn1 (stereo not drawn) [Compound 250] | 5.00 to 6.00
23 | CCOc1cc2nc(C)cn2cc1C(=O)Nc1ccc(N2CCCC3(CCNC3)C2)nn1 (stereo not drawn) [Compound 254] | 4.30 to 5.00
24 | CCOc1cc2nc(C)cn2cc1C(=O)Nc1ccc(N2CC3CCCC(C2)N3)nn1 [Compound 255] | > 6.00
25 | CCOc1cc2nc(C)cn2cc1C(=O)Nc1ccc(N(C)[C@@H]2C[C@H]3CC[C@@H](C2)N3)nn1 [Compound 256] | 5.00 to 6.00
26 | CCOc1cc2nc(C)cn2cc1C(=O)Nc1ccc(N2CCN(CC3CCNCC3)CC2)nn1 [Compound 259] | 5.00 to 6.00
27 | CCOc1cc2nc(C)cn2cc1C(=O)Nc1ccc(N2CCC(C3CCCN3)CC2)nn1 (stereo not drawn) [Compound 263] | 5.00 to 6.00
28 | CCOc1cc2nc(C)cn2cc1C(=O)Nc1ccc(N2CCC3(CCCNC3)C2)nn1 (stereo not drawn) [Compound 265] | 5.00 to 6.00
29 | CCOc1cc2nc(C)cn2cc1C(=O)Nc1ccc(N2CCC3(CCNCC3)C2)nn1 [Compound 273] | 5.00 to 6.00
30 | CCOc1cc2nc(C)cn2cc1C(=O)Nc1ccc(N2CCN(C3CCNC3)CC2)nn1 (stereo not drawn) [Compound 274] | 5.00 to 6.00
31 | CCOc1cc2nc(C)cn2cc1C(=O)Nc1ccc(N2CCC3(CCNCC3)CC2)nn1 [Compound 284] | 5.00 to 6.00
32 | CCOc1cc2nc(C)cn2cc1C(=O)Nc1ccc(N(C)C2CCNC2)nn1 (stereo not drawn) [Compound 288] | 5.00 to 6.00
33 | CCOc1cc2nc(C)cn2cc1C(=O)Nc1ccc(N(C)C2CCNCC2)nn1 [Compound 292] | 5.00 to 6.00
34 | CCOc1cc2nn(C)cc2cc1C(=O)Nc1ccc(N2CCN(C)[C@@H](C)C2)nn1 [Compound 299, (S)—N-(6-(3,4-dimethylpiperazin-1-yl)pyridazin-3-yl)-6-ethoxy-2-methyl-2H-indazole-5-carboxamide hydrochloride] | 5.00 to 6.00
35 | CCOc1cc2nn(C)cc2cc1C(=O)Nc1ccc(N2CCN(CC)[C@@H](C)C2)nn1 [Compound 300, (S)-6-ethoxy-N-(6-(4-ethyl-3-methylpiperazin-1-yl)pyridazin-3-yl)-2-methyl-2H-indazole-5-carboxamide hydrochloride] | 5.00 to 6.00
36 | CCOc1cc2nn(C)cc2cc1C(=O)Nc1ccc(N2CCN(C3CCOCC3)[C@@H](C)C2)nn1 [Compound 301, 6-ethoxy-2-methyl-N-{6-[(3S)-3-methyl-4-(oxan-4-yl)piperazin-1-yl]pyridazin-3-yl}-2H-indazole-5-carboxamide] | 5.00 to 6.00
37 | COc1cc2nc(C)cn2cc1C(=O)Nc1cc(C)c(N2CCN[C@@H](C)C2)nn1 [Compound 302, 7-methoxy-2-methyl-N-{5-methyl-6-[(3S)-3-methylpiperazin-1-yl]pyridazin-3-yl}imidazo[1,2-a]pyridine-6-carboxamide] | > 6.00

Next, values leading:

Row | pIC50 | Structure (SMILES)
38 | 5.00 to 6.00 | CCOc1cc2nc(C)cn2cc1C(=O)Nc1ccc(N2CCC3CCNCC3C2)nn1 (stereo not drawn) [Compound 240]
39 | > 6.00 | CCNC1CCN(c2ccc(NC(=O)c3cn4cc(C)nc4cc3OCC)nn2)C1 (stereo not drawn) [Compound 244]
40 | 5.00 to 6.00 | CCOc1cc2nc(C)cn2cc1C(=O)Nc1ccc(N2CCC(NCCOC)CC2)nn1 [Compound 245]
41 | 5.00 to 6.00 | CCOc1cc2nc(C)cn2cc1C(=O)Nc1ccc(N2CCC(NCC3CC3)CC2)nn1 [Compound 249]
42 | 5.00 to 6.00 | CCNC1CCCN(c2ccc(NC(=O)c3cn4cc(C)nc4cc3OCC)nn2)C1 (stereo not drawn) [Compound 251]
43 | 5.00 to 6.00 | CCOc1cc2nc(C)cn2cc1C(=O)Nc1ccc(N2CCNC(C)CC2)nn1 (stereo not drawn) [Compound 257]
44 | 5.00 to 6.00 | CCOc1cc2nc(C)cn2cc1C(=O)Nc1ccc(N2CCNC3CC32)nn1 (stereo not drawn) [Compound 258]
45 | 5.00 to 6.00 | CCOc1cc2nc(C)cn2cc1C(=O)Nc1ccc(N2C[C@@H]3CCCN[C@@H]3C2)nn1 [Compound 260]
46 | 5.00 to 6.00 | CCNC1CN(c2ccc(NC(=O)c3cn4cc(C)nc4cc3OCC)nn2)C1 [Compound 262]
47 | 5.00 to 6.00 | CCOc1cc2nc(C)cn2cc1C(=O)Nc1ccc(N2CCNCCC2C)nn1 (stereo not drawn) [Compound 264]
48 | > 6.00 | CCOc1cc2nc(C)cn2cc1C(=O)Nc1ccc(N2CCC(CNC)C2)nn1 (stereo not drawn) [Compound 266]
49 | 5.00 to 6.00 | CCOc1cc2nc(C)cn2cc1C(=O)Nc1ccc(N2CC3(CCNC3)C2)nn1 [Compound 267]
50 | 5.00 to 6.00 | CCOc1cc2nc(C)cn2cc1C(=O)Nc1ccc(N2CCNC(C)C2C)nn1 (stereo not drawn) [Compound 268]
51 | 5.00 to 6.00 | CCNC1CCN(c2ccc(NC(=O)c3cn4cc(C)nc4cc3OCC)nn2)CC1 [Compound 269]
52 | 5.00 to 6.00 | CCOc1cc2nc(C)cn2cc1C(=O)Nc1ccc(N2CCC(CNC)CC2)nn1 [Compound 270]
53 | 5.00 to 6.00 | CCOc1cc2nc(C)cn2cc1C(=O)Nc1ccc(N2CCC3(CNC3)C2)nn1 [Compound 271]
54 | 5.00 to 6.00 | CCOc1cc2nc(C)cn2cc1C(=O)Nc1ccc(N2CCN(C3CNC3)CC2)nn1 [Compound 272]
55 | 5.00 to 6.00 | CCOc1cc2nc(C)cn2cc1C(=O)Nc1ccc(N2CCC3(CCNC3)CC2)nn1 [Compound 275]
56 | > 6.00 | CCOc1cc2nc(C)cn2cc1C(=O)Nc1ccc(N2CCN[C@@H](C(C)C)C2)nn1 [Compound 276]

Row | pIC50 | Structure (SMILES)
57 | 5.00 to 6.00 | CCOc1cc2nc(C)cn2cc1C(=O)Nc1ccc(N2CC3(CNC3)C2)nn1 [Compound 277]
58 | 5.00 to 6.00 | CCOc1cc2nc(C)cn2cc1C(=O)Nc1ccc(N2CCCC(CNC)C2)nn1 (stereo not drawn) [Compound 278]
59 | > 6.00 | CCOc1cc2nc(C)cn2cc1C(=O)Nc1ccc(N2CCNC(CC)C2)nn1 (stereo not drawn) [Compound 279]
60 | > 6.00 | CCOc1cc2nc(C)cn2cc1C(=O)Nc1ccc(N2CCC(NC)C2)nn1 (stereo not drawn) [Compound 280]
61 | 5.00 to 6.00 | CCOc1cc2nc(C)cn2cc1C(=O)Nc1ccc(N2CC(C)NCC2C)nn1 (stereo not drawn) [Compound 281]
62 | > 6.00 | CCOc1cc2nc(C)cn2cc1C(=O)Nc1ccc(N2C[C@@H](C)N[C@@H](C)C2)nn1 [Compound 282]
63 | 5.00 to 6.00 | CCOc1cc2nc(C)cn2cc1C(=O)Nc1ccc(N2CCCC(NC)C2)nn1 (stereo not drawn) [Compound 283]
64 | 5.00 to 6.00 | CCOc1cc2nc(C)cn2cc1C(=O)Nc1ccc(N2C[C@@H]3C[C@H]2CN3)nn1 [Compound 285]
65 | 5.00 to 6.00 | CCOc1cc2nc(C)cn2cc1C(=O)Nc1ccc(N2CCC3(CCNC3)C2)nn1 (stereo not drawn) [Compound 286]
66 | 5.00 to 6.00 | CCOc1cc2nc(C)cn2cc1C(=O)Nc1ccc(N2CCC3(CC2)CNC3)nn1 [Compound 287]
67 | 5.00 to 6.00 | CCOc1cc2nc(C)cn2cc1C(=O)Nc1ccc(N2CC3(CCNCC3)C2)nn1 [Compound 289]
68 | > 6.00 | CCOc1cc2nc(C)cn2cc1C(=O)Nc1ccc(N2CCNCC2)nn1 [Compound 290]
69 | 5.00 to 6.00 | CCOc1cc2nc(C)cn2cc1C(=O)Nc1ccc(N2CCNCC2C)nn1 (stereo not drawn) [Compound 291]
70 | 5.00 to 6.00 | CCOc1cc2nc(C)cn2cc1C(=O)Nc1ccc(N2CC(NC)C2)nn1 [Compound 293]
71 | > 6.00 | CCOc1cc2nc(C)cn2cc1C(=O)Nc1ccc(N2CCCNCC2)nn1 [Compound 294]
72 | > 6.00 | CCOc1cc2nc(C)cn2cc1C(=O)Nc1ccc(N2CCNC(C)C2)nn1 (stereo not drawn) [Compound 295]
73 | 5.00 to 6.00 | CCOc1cc2nc(C)cn2cc1C(=O)Nc1ccc(N2CC3(CC(NC)CO3)C2)nn1 (stereo not drawn) [Compound 296]
74 | 5.00 to 6.00 | CCNC1COC2(C1)CN(c1ccc(NC(=O)c3cn4cc(C)nc4cc3OCC)nn1)C2 (stereo not drawn) [Compound 297]
75 | 5.00 to 6.00 | CCOc1cc2nc(C)cn2cc1C(=O)Nc1ccc(N2CC3(CC(NC(C)C)CO3)C2)nn1 (stereo not drawn) [Compound 298]
